Reference: US11820762B2, “Compounds as potential therapeutic agents targeting various neurodegenerative diseases” (The Hong Kong University of Science and Technology, priority 2020, dated 2023)
“Also recorded” adds a separate entry of the source. Like-named read-outs stand apart in the source and are kept apart here.

Assays:
[1] = system: red blood cells; test: Hemolysis assay; format: cell-based; details: 250, 500, 1000 μg/mL; 2% rabbit red blood cells; 37° C., 1 hour
Description: Hemolytic activity was determined with 2% fresh red blood cells from a healthy rabbit. Blood cells were obtained and washed with PBS buffer four to five times and centrifuged at 1500 rpm for 10 mins until the upper phase became clear. Compounds were diluted with PBS to final concentrations of 1000, 500, 250 μg/mL, added to the same volume of 2% red blood cells and incubated at 37° C. for 1 hour. Samples were centrifuged at 10,000 rpm for 5 mins, and supernatants were added into 96-well plates and measured at 570 nm with a Thermo Scientific Multiskan FC multiplate photometer (Thermo Scientific™, USA). An aliquot of 10% Triton X-100 was used as the positive control, and 1% DMSO dissolved in PBS was used as the negative control.

[2] = system: DNA (G4C2)4 (SEQ ID NO: 5) G4; test: 1D 1H-NMR titration of DNA (G4C2)4 G4; format: binding; details: for binding affinity order according to NMR titration: DNA (G4C2)4 G-quadruplex and hnRNP H, FIGS. 3C-3E; for binding to DNA (G4C2)4 G4 by NMR titration: G4:compound ratio 1:1 to 1:10
Description: Single […] were purchased from Integrated DNA Technologies (IDT) and Takara. Single-strand DNA/RNA sample at 100 μM was then annealed by heating up to 95° C. for 15 mins, and slowly cooled to room temperature in the annealing buffer (70 mM KCl, 20 mM potassium phosphate (pH 7.0)) for overnight. The final NMR samples contained 0.1 mM DNA or RNA in 70 mM KCl and 20 mM potassium phosphate buffer (pH 7.0).
The 1D ^1H-NMR spectra were performed at 25° C. All compounds were dissolved in isotope-labeled d6-DMSO (Sigma-Aldrich) at about 50 mM concentration, working as stock solutions. To avoid chemical shift changes of DNA/RNA G4 resulted from d6-DMSO addition, […] d6-DMSO was added into 500 μL of 0.1 mM DNA/RNA G4 solution in the NMR buffer (20 mM potassium phosphate buffer and 70 mM KCl, pH 7.0, 10% D2O) and then 1D ^1H-NMR spectrum was recorded as a reference. During NMR titration experiments of adding each compound into the DNA/RNA G4 solution, the maximal volume of 10 μL of each compound in d6-DMSO solution was regarded as a final data point.
We next confirmed the binding of cA and DNA (G4C2)4 (SEQ ID NO: 5) G4 by NMR titration experiments.

[3] = system: Neuro2a cells transfected with DNA (G4C2)29; test: Cell viability of Neuro2a cells transfected with DNA (G4C2)29 (C9orf72 ALS/FTD cell model); format: cell-based; details: for effect on cell viability of (G4C2)29-transfected Neuro2a cells: 1 μg/ml; for viability at 1 µg/mL: Mus musculus, N2a, read-out: cell viability in (G4C2)29-cells
Description: (§1) Cytotoxicity of compounds was tested by MTT assay. Cells were grown in DMEM (Gibco) with 10% FBS and 1% penicillin-streptomycin at 37° C. with 5% CO2. In total, 5×10^3 cells were seeded in each well of 96-well plates and cultured for 24 hours. Then cells were treated with different concentrations of compounds dissolved in DMSO for another 24 hours. After incubating with 20 μl of MTT (5 mg/mL) for each well at 37° C. for another four hours, 100 μl of DMSO was added to dissolve formazan. Absorbance was measured using a Multiskan™ FC microplate photometer at 570 nm. IC50 data were analyzed with GraphPad Prism software.
DNA constructs were transfected to neuronal Neuro2a cell lines using Lipofectamine 2000 (Thermo Fisher Scientific, 11668019). 4 to 6 hours after transfection, fresh culture medium was used to replace the transfection medium, and cells were incubated for another 48 hours to allow recovery and construct expression.

[4] = system: differentiated HT22 cells; test: cells; format: cell-based; details: for neuroprotective activity compared with cA: comparison of analogs; for EC50: Mus musculus, HT-22, differentiated HT22 cells pre-treated with 5 mM L-glutamate, cell viability
Description: as §1
Cultured HT22 cells were differentiated by applying 10 μM retinoic acid (Sigma-Aldrich, R2625-50MG) and 500 μM cAMP (Sigma-Aldrich, A6885) in DEME medium supplied with 0.5% FBS (differentiation medium) and incubated 48 hours before adding other treatments. 5 mM L-glutamate acid was applied to the original differentiation medium for further 24-hours incubation. Cell viability was measured by MTT assay described above.
In the C9orf72 associated ALS/FTD, the G4C2 HRE make motor neurons more vulnerable to aberrant neuron excitation^43. Meanwhile, the hyperactivation of glutamate receptors drives a toxic level of neuronal activity, promoting the non-ATG (RAN) translation of G4C2 repeat-associated DPR proteins^44, leading to further toxicity of motor neurons. Thus, we would like to test our compounds in a glutamate (E)-induced excitotoxicity cell model.

[5] = molecular target: T1, Tau-R3 fibrils (Homo sapiens, UniProt P10636); test: TEM imaging of Tau-R3 fibrils; format: biochemical; details: cA 10 μg/ml, cB 5 μg/ml, cC 10 μg/ml
T1 construct: Tau-R3 protein was synthesized and purchased from ChinaPeptides Co., Ltd; purchased ChinaPeptides Co., Ltd; host or cells: chemical synthesis
T1 sequence (P10636 623-653 limits assumed): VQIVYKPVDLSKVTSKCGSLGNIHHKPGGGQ
Description: Samples from ThT fluorescence experiments were directly applied to a 300-mesh carbon coating copper grid. 20 μL of aggregate samples were dispensed onto a sheet of parafilm, and a copper grid was placed onto the sample drop for 5 mins. The copper grid with samples was moved to water drop for 5 mins-washing, and then stained with 2% uranyl acetate for 5 mins. Images were captured using a transmission electron microscope (Thermo Scientific Talos L120C) at a magnification of 13500× and an acceleration voltage of 120 kV.
In the C9orf72 ALS/FTD, there is a strong genetic association between the microtubule-binding protein, tau and the G4C2 HRE. […] The co-expression of Tau and G4C2 repeats produces a synergistic deterioration of the neurodegeneration phenotype of ALS/FTD^46. Considering the tight correlation of Tau aggregation with the ALS/FTD pathogenesis, we tested our compounds in a non-cell-based Tau-R3 aggregation inhibition assay. […] Moreover, we conducted high magnification TEM imaging to characterize the morphological changes of Tau-R3 fibrils with cA, cB and cC treatments. […] Furthermore, the misfolding of tau protein into filaments in neurons of the central nervous system can be found in various neurodegenerative diseases, such as Alzheimer's disease et al. Therefore, the inhibition on tau aggregation represented a potential of cA and its derivatives in targeting multiple other neurodegenerative diseases more than ALS.

SMILES | hemolytic activity [1] | binding affinity order according to NMR titration [2] | binding to DNA (G4C2)4 G4 by NMR titration [2] | effect on cell viability of (G4C2)29-transfected Neuro2a cells [3] | viability at 1 µg/mL [3] | neuroprotective activity compared with cA [4] | morphological change of Tau-R3 fibrils (TEM) [5] | cytotoxicity (structure-activity summary) [4] | EC50 [4] | viability at 1 µg/mL ([3]; 1 μg/mL, model group 20%)
CC(=O)Cc1cc2c(c(O)c1C(=O)O)-c1c(c(O)c3oc4c(O[C@@H]5O[C@H](C(=O)O)[C@@H](O)[C@H](O)[C@H]5O)cccc4c(=O)c3c1O)CC2 [cC, chrexanthomycin C] | no hemolytic activity even at the concentration of 1000 μg/ml; also recorded: no hemolytic activity with a pretty high concentration of 1 mg/ml | cC>cA>cB>cF | proved to bind | partially increased the cell viability | 40% | better neuroprotective activity than cA | broken into shorter and thinner fragments | – | – | –
COc1c2c(c(O)c3c(=O)c4cccc(O[C@@H]5OC(C(=O)O)=C[C@H](O)[C@H]5O)c4oc13)-c1c(cc(CC(C)=O)c(C(=O)O)c1O)CC2 [cB, chrexanthomycin B] | significant hemolytic activity starting at 500 μg/ml; also recorded: significant hemolytic activity starting at 0.5 mg/ml | cC>cA>cB>cF | proved to bind | made it worse; also recorded: even worse than the model group | – | worse than cA | broken into shorter and thinner fragments | potent cytotoxicity | 11.1 µM | –
CC(=O)Cc1cc2c(c(O)c1C(=O)O)-c1c(c(O)c3oc4c(O[C@@H]5OC(C(=O)O)=C[C@H](O)[C@H]5O)cccc4c(=O)c3c1O)CC2 [cA, chrexanthomycin A] | no hemolytic activity even at the concentration of 1000 μg/ml; also recorded: no hemolytic activity with a pretty high concentration of 1 mg/ml | cC>cA>cB>cF | apparent chemical shift changes | partially increased the cell viability | – | – | broken into shorter and thinner fragments | – | 0.31 µM | 30%
